Data: PubChem BioAssay (NCI)
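At the GI50, growth is halved. TGI: concentration producing complete growth inhibition.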

Key:
Test in all cases: DTP human tumour cell line panel, 384-well format
[1] = test system: PC-3 prostate
[2] = test system: A498 renal
[3] = test system: CAKI-1 renal
[4] = test system: A549 NSCLC
[5] = test system: ACHN renal
[6] = test system: T-47D breast
[7] = test system: SNB-19 CNS
[8] = test system: LOX IMVI melanoma
[9] = test system: TK-10 renal
[10] = test system: SN12C renal
[11] = test system: SF-539 CNS
[12] = test system: HOP-62 NSCLC
[13] = test system: SR leukemia
[14] = test system: HL-60(TB) leukemia
[15] = test system: OVCAR-4 ovarian
[16] = test system: UO-31 renal
[17] = test system: HOP-92 NSCLC
[18] = test system: MCF7 breast
[19] = test system: MALME-3M melanoma
[20] = test system: BT-549 breast
[21] = test system: SK-MEL-2 melanoma
[22] = test system: IGROV1 ovarian
[23] = test system: NCI-H226 lung
[24] = test system: MDA-MB-435 melanoma
[25] = test system: U251 glioblastoma
[26] = test system: SNB-75 CNS
[27] = test system: UACC-62 melanoma
[28] = test system: UACC-257 melanoma
[29] = test system: NCI/ADR-RES ovarian
[30] = test system: SK-OV-3 ovarian
[31] = test system: 786-0 renal
[32] = test system: HCT-116 colon
[33] = test system: NCI-H322M lung
[34] = test system: HCT-15 colon
[35] = test system: NCI-H522 lung
[36] = test system: HCC-2998 colon
[37] = test system: HS 578T breast
[38] = test system: MDA-MB-231 breast
[39] = test system: DU-145 prostate
[40] = test system: SW-620 colon
[41] = test system: SK-MEL-28 melanoma
[42] = test system: HT29 colon
[43] = test system: RXF 393 renal
[44] = test system: NCI-H460 NSCLC
[45] = test system: RPMI-8226 leukemia
[46] = test system: MDA-MB-468 breast
[47] = test system: SF-268 CNS

O=C(Nc1cnn2ccc(N3CCC[C@@H]3c3cc(F)ccc3F)nc12)N1CC[C@H](O)C1
GI50 [1]: > 100 µM | TGI [1]: > 100 µM | GI50 [2]: > 100 µM | TGI [2]: > 100 µM | GI50 [3]: > 100 µM | TGI [3]: > 100 µM | GI50 [4]: > 100 µM | TGI [4]: > 100 µM | GI50 [5]: > 100 µM | TGI [5]: > 100 µM | GI50 [6]: > 100 µM | TGI [6]: > 100 µM | GI50 [7]: > 100 µM | TGI [7]: > 100 µM | GI50 [8]: > 100 µM | TGI [8]: > 100 µM | GI50 [9]: > 100 µM | TGI [9]: > 100 µM | GI50 [10]: > 100 µM | TGI [10]: > 100 µM | GI50 [11]: > 100 µM | TGI [11]: > 100 µM | GI50 [12]: > 100 µM | TGI [12]: > 100 µM | GI50 [13]: > 78.9 µM | TGI [13]: > 100 µM | GI50 [14]: > 100 µM | TGI [14]: > 100 µM | GI50 [15]: > 100 µM | TGI [15]: > 100 µM | GI50 [16]: > 100 µM | TGI [16]: > 100 µM | GI50 [17]: > 100 µM | TGI [17]: > 100 µM | GI50 [18]: > 100 µM | TGI [18]: > 100 µM | GI50 [19]: > 100 µM | TGI [19]: > 100 µM | GI50 [20]: > 100 µM | TGI [20]: > 100 µM | GI50 [21]: > 100 µM | TGI [21]: > 100 µM | GI50 [22]: > 100 µM | TGI [22]: > 100 µM | GI50 [23]: > 100 µM | TGI [23]: > 100 µM | GI50 [24]: > 100 µM | TGI [24]: > 100 µM | GI50 [25]: > 100 µM | TGI [25]: > 100 µM | GI50 [26]: > 100 µM | TGI [26]: > 100 µM | GI50 [27]: > 100 µM | TGI [27]: > 100 µM | GI50 [28]: > 100 µM | TGI [28]: > 100 µM | GI50 [29]: > 100 µM | TGI [29]: > 100 µM | GI50 [30]: > 100 µM | TGI [30]: > 100 µM | GI50 [31]: > 100 µM | TGI [31]: > 100 µM | GI50 [32]: > 100 µM | TGI [32]: > 100 µM | GI50 [33]: > 100 µM | TGI [33]: > 100 µM | GI50 [34]: > 100 µM | TGI [34]: > 100 µM | GI50 [35]: > 100 µM | TGI [35]: > 100 µM | GI50 [36]: > 100 µM | TGI [36]: > 100 µM | GI50 [37]: > 100 µM | TGI [37]: > 100 µM | GI50 [38]: > 100 µM | TGI [38]: > 100 µM | GI50 [39]: > 100 µM | TGI [39]: > 100 µM | GI50 [40]: > 100 µM | TGI [40]: > 100 µM | GI50 [41]: > 100 µM | TGI [41]: > 100 µM | GI50 [42]: > 100 µM | TGI [42]: > 100 µM | GI50 [43]: > 100 µM | TGI [43]: > 100 µM | GI50 [44]: > 100 µM | TGI [44]: > 100 µM | GI50 [45]: > 100 µM | TGI [45]: > 100 µM | GI50 [46]: > 100 µM | TGI [46]: > 100 µM | GI50 [47]: > 100 µM | TGI [47]: > 100 µM

COc1ncc(-c2nc3c(n2C(C)C)[C@H](c2ccc(Cl)cc2)N(c2cc(Cl)cn(C)c2=O)C3=O)c(OC)n1
GI50 [1]: 39.7 µM | TGI [1]: > 100 µM | GI50 [2]: 9.44 µM | TGI [2]: 52.9 µM | GI50 [3]: 6.27 µM | TGI [3]: > 64.1 µM | GI50 [4]: 16.6 µM | TGI [4]: 58.7 µM | GI50 [5]: 13.1 µM | TGI [5]: 47.8 µM | GI50 [6]: 34.3 µM | TGI [6]: > 91.8 µM | GI50 [7]: > 94.8 µM | TGI [7]: > 100 µM | GI50 [8]: 18.9 µM | TGI [8]: > 100 µM | GI50 [9]: > 68.4 µM | TGI [9]: > 100 µM | GI50 [10]: > 93.2 µM | TGI [10]: > 100 µM | GI50 [11]: > 73 µM | TGI [11]: > 100 µM | GI50 [12]: > 51 µM | TGI [12]: > 100 µM | GI50 [13]: 1.96 µM | TGI [13]: 10.9 µM | GI50 [14]: 16.7 µM | TGI [14]: 31.1 µM | GI50 [15]: 28.9 µM | TGI [15]: > 100 µM | GI50 [16]: 12.4 µM | TGI [16]: 28.2 µM | GI50 [17]: 24.8 µM | TGI [17]: > 92.2 µM | GI50 [18]: 24.7 µM | TGI [18]: > 100 µM | GI50 [19]: 12.7 µM | TGI [19]: 42.5 µM | GI50 [20]: 36.2 µM | TGI [20]: > 100 µM | GI50 [21]: > 100 µM | TGI [21]: > 100 µM | GI50 [22]: 24.9 µM | TGI [22]: > 100 µM | GI50 [23]: 13 µM | TGI [23]: 30.2 µM | GI50 [24]: 60.3 µM | TGI [24]: > 100 µM | GI50 [25]: 65.4 µM | TGI [25]: > 100 µM | GI50 [26]: > 52.2 µM | TGI [26]: > 100 µM | GI50 [27]: 5.25 µM | TGI [27]: 22.7 µM | GI50 [28]: 17.5 µM | TGI [28]: 37.3 µM | GI50 [29]: 62.6 µM | TGI [29]: > 100 µM | GI50 [30]: > 76 µM | TGI [30]: > 100 µM | GI50 [31]: 62.7 µM | TGI [31]: > 100 µM | GI50 [32]: 18.2 µM | TGI [32]: > 100 µM | GI50 [33]: > 96 µM | TGI [33]: > 100 µM | GI50 [34]: 36 µM | TGI [34]: > 100 µM | GI50 [35]: 48.4 µM | TGI [35]: > 100 µM | GI50 [36]: 65.7 µM | TGI [36]: > 100 µM | GI50 [37]: 33.3 µM | TGI [37]: > 100 µM | GI50 [38]: 44.6 µM | TGI [38]: > 100 µM | GI50 [39]: 64.4 µM | TGI [39]: > 100 µM | GI50 [40]: 53.5 µM | TGI [40]: 97.8 µM | GI50 [41]: > 62.3 µM | TGI [41]: > 100 µM | GI50 [42]: 51.5 µM | TGI [42]: > 100 µM | GI50 [43]: 35.5 µM | TGI [43]: > 89.3 µM | GI50 [44]: 14.2 µM | TGI [44]: 45.5 µM | GI50 [45]: 20.7 µM | TGI [45]: 42.7 µM | GI50 [46]: 17.3 µM | TGI [46]: 39.6 µM | GI50 [47]: > 50.5 µM | TGI [47]: > 77.9 µM
